From US10174072B2, “Antileishmanial compositions and methods of use” (Ohio State Innovation Foundation, priority 2011, dated 2019)
Entries after “also recorded” stand apart in the source; their conditions may differ. Like-named read-outs stand apart in the source and are kept apart here.

How the values were obtained:
[1] = tested on: promastigotes of L. mexicana; experiment: Promastigote assay (L. mexicana, flow cytometry with propidium iodide); assay type: cell-based, Leishmania mexicana; details: for antileishmanial activity against promastigotes (in words): 48 h exposure; for IC50: Leishmania mexicana, 48 h, linear regression from 1, 10, 50 and 100 μg/mL
Protocol: Leishmania mexicana (MNYC/BZ/62/M379) was maintained by serial passage of amastigotes inoculated subcutaneously into the shaven rumps of 129SvE mice and was obtained by in vitro culture of amastigotes in RPMI-1640 supplemented with 10% fetal calf serum (FCS, Sigma-Aldrich Corporation, St. Louis, Mo.) and incubated at 28° C. All work including experimental animals was approved by the Institutional Animal Care and Use Committee (IACUC) of The Ohio State University.
One million log phase promastigotes of L. mexicana were seeded in 1 mL of complete RPMI-1640 medium, and parasite numbers, and their mobility and morphology were measured from 24 and 48 h. This was performed by flow cytometry measurements using experimental and control groups of parasites stained with propidium iodide and with Quillaja saponaria saponin as positive control, as reported in the literature. The test compounds isolated from P. andrieuxii were compared with a positive control: sodium stibogluconate, a pentavalent antimonial drug.

[2] = tested on: L. mexicana amastigotes in bone marrow-derived macrophages; experiment: Amastigote assay in infected bone marrow-derived macrophages; assay type: cell-based, Leishmania mexicana; details: for IC50: Leishmania mexicana, BMDM, in Mus musculus, 48 h, read-out: Amastigote IC50, 48 hours, infected BMDM from C57BL/6 mice; for antileishmanial activity against the amastigote stage (in words): 48 h treatment
Source text: Bone marrow derived macrophages were obtained from C57BL/6 mice. Bone marrow-derived macrophages (BMDM) (0.5×10^6) were adhered on top of glass rounded coverslips deposited at the bottom of individual plate's well (24 well tissue culture plate, Corning, Inc.). Next, macrophages were infected overnight with 2.5×10^6 stationary phase promastigotes of the L. mexicana (ratio 5:1). After this period, cells were extensively washed with Hank's balanced salt solution (HBSS) to eliminate non-phagocytosed parasites, and, after treatment with test compounds for 48 hours, cells were stained with Giemsa stain (Sigma). In each experiment, infection rates were recorded by counting the number of parasites in 100 macrophages on each slide in triplicate in a blinded fashion.

[3] = tested on: intracellular parasites (L. mexicana amastigotes); experiment: Electron microscopy of treated intracellular parasites; assay type: cell-based, Leishmania mexicana; details: 100 μM, 2 h
Protocol: Intracellular parasites were co-cultured, as previously described herein, by treating a 100 μM concentration of each pure compound for 2 h and suspending them in glutaraldehyde. Samples were further processed in an electron microscopy unit as follows: Incubation steps were carried out on a Lab-Line orbital shaker operating at 700 rpm (Barnstead/Thermolyne, Melrose Park, Ill.). After the initial fixation in 3% buffered glutaraldehyde, cell pellets were washed twice with sodium cacodylate buffer (pH 7.4, 10 minutes each) and spun down after each wash at 1500 rpm for 5 min. Cell samples were then post-fixed in 1% osmium tetroxide in sym-collidine buffer (pH 7.6) for 1 h at room temperature. Following two washes with sym-collidine buffer (10 min each) the cell pellet was stained with a saturated aqueous uranyl acetate solution (pH 3.3) for 1 h. Cell pellets were dehydrated in a graded EtOH series up to absolute (10 min each). Acetone was used as the transitional solvent, two changes for 10 min each. The cell suspensions were infiltrated overnight with a 1:1 mixture of acetone and Spurr's epoxy resin (Electron Microscopy Sciences, Fort Washington, Pa.). Finally, cell pellets were placed into BEEM™ embedding capsules containing 100% Spurr's resin. Polymerization of epoxy blocks was carried out at 70° C. overnight. Polymerized blocks were sectioned with a Leica Ultraut UCT ultramicrotome (Leica Microsystem GmbH, Wein, Austria). Methylene Blue-Basic Fuschin stained semi-thin (750 nm) sections were evaluated and two representative areas were thin-sectioned for ultrastructural examination. Ultrathin (80 nm) sections were collected on 200 mesh copper grids (Electron Microscopy Sciences) and post-stained with lead citrate (3 min).

[4] = tested on: Leishmania donovani (Strain LV9); experiment: In vivo activity of liposomal preparation of compound 1, parasite loads in liver and spleen; set-up: species or system BALB/c mice; details: 46.1 μg compound 1, tail vein, one week after treatment
Protocol: Liposomes were made by rehydration of a lipid cake. First, hydrogenated soy phosphatidylcholine (Avanti Polar Lipids, Inc., Alabaster, Ala.), cholesterol (Avanti Polar Lipids), 1,2-distearoyl-sn-glycero-3-[phospho-rac-(1-glycerol)] (“DSPG”; Avanti Polar Lipids,), and α-tocopherol (Sigma-Aldrich Corporation, St. Louis, Mo.) were dissolved in a chloroform and methanol (9:1, v/v). Compound 1 was dissolved in the lipid solution at a weight ratio of compound 1 to lipid of 1:9 (i.e. for clarity, the solution comprised 10% by weight of compound 1 and 90% by weight of the lipid solution). The solution was placed on at rotary evaporator for about 30 minutes and the liquid was completely evaporated. The lipids were reconstituted into liposomes in deionized water (3 mL) for 30 minutes in a 60° C. water bath, followed by 3 freeze-thaw cycles. […] Loading of liposomes was verified and quantified by HPLC. […]
One week after the treatment, the mice were euthanized and parasite loads in the liver and spleen were determined. Parasite loads in the spleen and liver were quantified as previously described (Murray, H. W. 2000. Infect Immun. 68: 6294-6299). Briefly, the liver and spleen impression smears were stained using Giemsa and parasite loads we quantified microscopically. LDU is determined by the number of amastigotes per 1000 nuclei multiplied by the weight (gm) of the liver or spleen. […]

[5] = tested on: splenocytes stimulated with L. donovani antigen; experiment: Splenocyte T cell proliferation (Alamar blue) and cytokine ELISA after L. donovani antigen stimulation; assay type: in vivo, BALB/c mice; details: liposomal preparation
Protocol: One week after the treatment, the mice were euthanized and parasite loads in the liver and spleen were determined. Parasite loads in the spleen and liver were quantified as previously described (Murray, H. W. 2000. Infect Immun. 68: 6294-6299). Briefly, the liver and spleen impression smears were stained using Giemsa and parasite loads we quantified microscopically. LDU is determined by the number of amastigotes per 1000 nuclei multiplied by the weight (gm) of the liver or spleen. At this time, spleen cell suspensions were prepared and these cells were stimulated in vitro with 20 microgram/ml of Leishmania donovani antigen for 48-72 hrs to stimulate lymphocyte release. Proliferation of spleen cells were determined by Alamar blue assays and levels of cytokines including IFN-gamma in supernatant were quantified by ELISA using commercially available reagents from Biolegend and BD Biosciences.
T cell proliferation was determined as previously described (Rosas, L. E., et al., 2006. Am. J. Pathol. 168: 158-169.). Briefly, 5×10^5 cells were added in quadruplicate to the wells of sterile 96-well, flat-bottom tissue culture plates and stimulated with freeze-thawed L. donovani Ag (20 μg/ml). The proliferation responses were measured by Alamar blue assay (Ansar-Ahmed, A., et al., 1994. J. Immunol. Methods 170: 211-214.). Supernatants were collected after 72 hours of incubation at 37° C. and analyzed for the production of IFN-γ and IL-10 by standard ELISA methods (BD Pharmingen, Inc., San Diego, Calif.).

[6] = 48 hours in culture, read-out: Promastigote IC50

Row | SMILES | antileishmanial activity against promastigotes (in words) [1] | IC50 [1, 6] [µM] | IC50 [2] [µM] | electron microscopy findings in intracellular parasites [3] | antileishmanial activity against the amastigote stage (in words) [2] | further results
1 | C=C(CCC=C(C)C)[C@H]1CC[C@H]2[C@@H]3CCC4=CC(=O)CC[C@]4(C)[C@H]3CCC12C (stereo in doubt) [Compound 1, (8S,9S,10R,13R,14S,17R)-cholest-4,20,24-trien-3-one] | significant leishmanicidal activity; also recorded: inhibitory effects | 30 | 3.3 | morphological abnormalities and destruction of the amastigotes | – | activity relative to cholest-4-en-3-one (4), promastigote bioassay [1]: almost three times more active; parasite load in hepatic cells [4]: decreased parasite load; parasite load in splenic cells [4]: decreased parasite load; levels of IL-10 secreted from splenocytes ([5]; Leishmanial antigen stimulation): no significant change; secretion of IFN-γ from splenocytes ([5]; Leishmanial antigen stimulation, P value<0.01): significant increase; T cell proliferation of splenocytes upon Leishmanial antigen stimulation ([5]; vs group without compound 1, P value<0.0001): significant increase
2 | C=C(CC[C@@H](C)[C@H]1CC[C@H]2[C@@H]3CCC4=CC(=O)CC[C@]4(C)[C@H]3CC[C@]12C)C(C)C [Compound 3, 24-methylcholesta-4,24(28)-dien-3-one] | significant leishmanicidal activity; also recorded: inhibitory effects | 24 | 3.5 | morphological abnormalities and destruction of the amastigotes | – | –
3 | CC(C)CCC[C@@H](C)[C@H]1CC[C@H]2[C@@H]3CCC4=CC(=O)CC[C@]4(C)[C@H]3CC[C@]12C [Compound 4, cholest-4-en-3-one] | inhibitory effects | 81 | 0.03 | morphological abnormalities and destruction of the amastigotes | – | potency relative to pentostam, amastigote stage ([2]; ratio of IC50 values): ~100 times
4 | CC[C@H](/C=C/[C@@H](C)[C@H]1CC[C@H]2[C@@H]3CCC4=CC(=O)CC[C@]4(C)[C@H]3CC[C@]12C)C(C)C [Compound 5, stigmast-4,22-dien-3-one] | inactive | – | – | – | inactive | –
5 | CC[C@H](CC[C@@H](C)[C@H]1CC[C@H]2[C@@H]3CCC4=CC(=O)CC[C@]4(C)[C@H]3CC[C@]12C)C(C)C [Compound 6, stigmast-4-en-3-one] | inactive | – | – | – | inactive | –
6 | C=C(CCC=C(C)C)[C@H]1CC[C@H]2[C@@H]3CC=C4C[C@@H](O)CC[C@]4(C)[C@H]3CC[C@]12C [Compound 7, cholest-5,20,24-trien-3β-ol] | inactive | > 262 | 14.5 | – | significant activity; also recorded: active | –
7 | CC(=O)C1=CC[C@H]2[C@@H]3CCC4=CC(=O)CC[C@]4(C)[C@H]3C[C@@H](O)[C@]12C [Compound 15, 6,7-dihydroneridienone] | potent; also recorded: inhibitory effects | – | – | morphological abnormalities and destruction of the amastigotes | – | –
8 | CC(=O)C1=CC[C@H]2[C@@H]3C=CC4=CC(=O)CC[C@]4(C)[C@H]3C[C@@H](O)[C@]12C [Compound 16, neridienone] | significant leishmanicidal activity; also recorded: inhibitory effects | – | – | morphological abnormalities and destruction of the amastigotes | – | IC50 ([1]; read-out: Promastigote IC50, 48 hours in culture): 9.2 µM
